According to patent publication US12678511B2, “Peptide and use thereof” (Kansai Medical University Educational Corgoration, priority 2019, dated 2026):
Peptide text beside a SMILES is read from it. * marks the point of attachment. 5FAM = O=C1OC2(c3ccc(O)cc3Oc3cc(O)ccc32)c2ccc(C(=O)*)cc21

Key:
[1] = system: cancer stroma of the stomach scirrhous carcinoma (HSC58 cells and hMSC); experiment: Absorption into cancer stroma of scirrhous stomach cancer mouse model; format: in vivo; conditions: 300 μg intravenous, 60 minutes after injection, FIG. 10B
Excerpt: Stomach poorly differentiated scirrhous adenocarcinoma, which is an example of a typical scirrhous carcinoma, is classified by visual classification into type 4 stomach cancer, and this type 4 stomach cancer has an extremely poor prognosis, with a five-year survival rate of about at least 4% but not more than 16%. Accordingly, in order to investigate the application of [FAM]-tandem MSCPP106 to the CAF that develop in the scirrhous stroma of cancer other than pancreatic cancer, a scirrhous stomach cancer mouse transplanted model was produced, and the absorption into scirrhous cancer stroma other than pancreatic cancer was investigated. With the exceptions of using human stomach poorly differentiated adenocarcinoma HSC58 cells instead of the BxPC3 cells, and rearing the mouse for 40 days from the time of cell injection, the same method as Example 7 was used to obtain a scirrhous stomach cancer mouse model. The HSC58 cells are a low metastatic human scirrhous stomach cancer cell line. Subsequently, [FAM]-tandem MSCPP106 (300 μg) was injected intravenously into the obtained scirrhous cancer mouse model, and the in-vivo absorption pharmacokinetics of the peptide 60 minutes after the intravenous injection were analyzed by tissue analysis of the freshly dissected specimen of the peptide-administered mouse. […]

[2] = system: cancer stroma (fibrous stroma) of tumor tissue, BxPC3 cells and hMSC transplanted; experiment: Selective absorption in scirrhous pancreatic cancer model mouse (tissue analysis); format: in vivo; conditions: 200 μg intravenous, 30 minutes after injection, FIG. 7B, 7C
Excerpt: A scirrhous pancreatic cancer model mouse having scirrhous carcinoma that forms abundant cancer stroma was produced in accordance with the method disclosed in Reference Document 1 (Saito K et al., “Stromal mesenchymal stem cells facilitate pancreatic cancer progression by regulating specific secretory molecules through mutual cellular interaction.”, Journal of Cancer, Vol. 9, No. 16, pp. 2916-2929, 2018). Specifically, 6-week old NOD/SCID mice (CLEA Japan Inc., Japan) were raised under pathogen-free conditions. A cell mixture containing BxPC3 cells (1×10^5 cells) and hMSC (1×10^5 cells) was injected either subcutaneously or into the abdominal cavity of each mouse. By raising the mice for 6 weeks from the time of cell injection, scirrhous pancreatic cancer model mice were obtained having an abundantly developed cancer stroma that imitates the tissue in a human pancreatic cancer patient (see FIG. 7A).
[FAM]-tandem MSCPP106 (200 μg) was injected intravenously into each obtained scirrhous carcinoma model mouse. Subsequently, the pharmacokinetics of the peptide 30 minutes after the intravenous injection were analyzed by tissue analysis of the freshly dissected specimen of the peptide-administered mouse. FIG. 7B is a series of bright-field images (left) and fluorescent images (right) of various tissues and tumor tissues resected from the scirrhous carcinoma model mouse. […]

absorption into the cancer stroma of the stomach scirrhous carcinoma [1]: strong selective absorption
absorption into the cancer stroma (fibrous stroma) inside tumor tissue [2]: strong absorption
SMILES: CC(C)C[C@H](NC(=O)[C@H](Cc1c[nH]cn1)NC(=O)[C@H](CCCNC(=N)N)NC(=O)[C@H](Cc1ccccc1)NC(=O)[C@H](CC(C)C)NC(=O)[C@H](CCC(=O)O)NC(=O)[C@H](C)NC(=O)[C@H](CS)NC(=O)[C@H](CCCCN)NC(=O)CNC(=O)[C@H](CC(C)C)NC(=O)[C@H](Cc1c[nH]cn1)NC(=O)[C@H](CCCNC(=N)N)NC(=O)[C@H](Cc1ccccc1)NC(=O)[C@H](CC(C)C)NC(=O)[C@H](CCC(=O)O)NC(=O)[C@H](C)NC(=O)[C@H](CS)NC(=O)[C@H](CCCCN)NC(=O)c1ccc2c(c1)C(=O)OC21c2ccc(O)cc2Oc2cc(O)ccc21)C(=O)O [[FAM]-tandem MSCPP106] (5FAM-KCAELFRHLGKCAELFRHL-OH)
